Assay results from article PMC7848139, “Novel Hybrid CHC from β-carboline and N-Hydroxyacrylamide Overcomes Drug-Resistant Hepatocellular Carcinoma by Promoting Apoptosis, DNA Damage, and Cell Cycle Arrest” (Frontiers in Pharmacology, 2021).

Columns and labels:
[1] = system: Bel7402/5-FU cells; assay: Cell apoptosis analysis by flow cytometry; format: cell-based, human; conditions: 5.0 μM, 72 h
Protocol: Briefly, Bel7402/5-FU cells were cultured in DMEM at 37°C with 5% CO2 for 12 h. […] Then Bel7402/5-FU cells were collected and using APC-Annexin V and 7-AAD to stain these cells under the condition of 37°C for 15 min. Flow cytometry analysis (Calibur, BD, United States) decide the percentage of apoptotic cells according to APC signal (FL4) (excitation wavelength at 633 nm; emission wavelength at 660 nm) and 7-AAD staining signal (FL3) (excitation wavelength at 488 nm; emission wavelength at 647 nm). WinList 3D (7.1) analyzed the data and Excel 2016 plotted the histogram.
FIGURE 5 CHC causes apoptosis of Bel7402/5-FU cells. […] The data (mean ± SD, percentage of apoptotic cells) represent the average of three separate experiments. *p < 0.01 vs. control.

[2] = system: CT-DNA; assay: UV-visible spectroscopy titrations with CT DNA; format: binding, calf; conditions: 20 μM compound, equal increments of CT-DNA, 25°C
Protocol: The ultraviolet spectrophotometer (UV2500, Shimadzu, Tokyo, Japan) recorded UV–visible spectroscopy under titrations at 25°C. Tris buffer (5 mM) was used to prepare Stock solutions of CT DNA (20 μM, calf thymus DNA) comprising ideal structure of double stranded DNA. Dissolving synthesized derivative in 1:1000 DMSO/Milli Q water to prepare stock solutions of them (20 μM). UV–visible absorption titrations were carried out with addition of 100 μl CT DNA solution to 4 ml solution of tested compound in quartz cuvette each time interval. Until the absorption band of complex containing synthesized derivative and CT DNA kept at a stable wavelength after adding CT DNA successfully for five times, titrations were finished. Finally, spectrophotometer noted the absorption spectra (250–500 nm).
FIGURE 7 UV-visible absorption spectra of CHC after adding equal amounts of CT DNA. Arrows indicate changes in absorbance with increasing concentrations of DNA [CHC] = 20 μM.

[3] = system: Bel7402/5-FU xenografts; assay: In vivo tumor growth inhibition, Bel7402/5-FU xenograft; set-up: species or system BALB/c nude mice; conditions: 70 μmol/kg, intraperitoneal daily, 21 days, n = 6; saline group 1.47 ± 0.21 g
Protocol: All animal experimental protocols were approved by the Animal Research and Care Committee of Nantong University. Female BALB/c nude mice at 5∼6 week-old were subcutaneously implanted with 1×10^6 Bel7402/5-FU cells. […] The body mass and tumor size of nude mice were surveyed every three days during the 21 days study. Tumor size (mm^3) of nude mice was determined using the formula: tumor size = ½ (Length×Width^2). Finally, these tumor-bearing mice were sacrificed, and their tumors were removed and weighed at the end of the 21 days.
Data (means ± SD) were from tumor volumes or weight of each group of mice (n = 6 per group). *p < 0.01 vs. control group.

[4] = system: SMMC-7721; assay: MTT antiproliferative assay, SMMC-7721; format: cell-based; conditions: Homo sapiens, 72 h, mean ± SD of three experiments, read-out: In vitro antiproliferative activity (IC50) SMMC-7721
Protocol: (§1) Briefly, appropriate cells (1 × 10^4 cells/mL) were placed into 96-well plates in 100 μL of DMEM medium overnight. Then adding 100 μL of evaluated compounds into individual well for 72 h while 0.1% DMSO aqueous solution was treated as the negative control. After incubation with 30 μl MTT (5 mg/mL) for 4 h in all well, and ELISA plate reader measured absorbance of each well at 570 nm. Then calculating cytotoxicity effect of evaluated compounds through the formula: Cell inhibitory percentage (%) = (1−OD of treatment group/OD of control) × 100%.

[5] = system: Huh7; assay: MTT antiproliferative assay, Huh7; format: cell-based; conditions: Homo sapiens, Huh-7, 72 h, mean ± SD of three experiments, read-out: In vitro antiproliferative activity (IC50) Huh7
Protocol: as §1

[6] = system: HCT116; assay: MTT antiproliferative assay, HCT116; format: cell-based; conditions: Homo sapiens, HCT-116, 72 h, mean ± SD of three experiments, read-out: In vitro antiproliferative activity (IC50) HCT116
Protocol: as §1

## O=C(CCCCCCC(=O)Nc1ccccc1)NO [SAHA, Vorinostat, reference compound]
[1]
  rate of Annexin V+ Bel7402/5-FU cellular apoptosis: 30.8%
[2]
  change of UV-visible absorption upon adding CT-DNA: slightly increased
[3]
  tumor mass at end of treatment: 0.76 ± 0.11 g

## COc1ccc2c(c1)[nH]c1c(C)nccc12 [Harmine, harmine, reference compound]
[4]
  IC50: 47.6 ± 5.12 µM
[5]
  IC50: 41.9 ± 5.06 µM
[6]
  IC50: 43.8 ± 3.85 µM
